Laboratory results from patent US11639350B2, “Heteroaryldihydropyrimidine derivatives and methods of treating hepatitis B infections” (Janssen Pharmaceutica NV, priority 2018, dated 2023).
Read-outs that look alike come from different tables or passages of the source.

Key:
HepG2.2.15 cells = test: Cytotoxicity determination in HepG2.2.15 cells (CCK-8); assay type: cell-based; conditions: 6 days of compound treatment, CCK-8, highest concentration 100 μM
Method in brief: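 CC50 is from CCK-8 absorbance (450 nm, 630 nm reference) after 2.5 h with reagent. Before that, compounds were applied for six days, top concentration 100 μM, eight threefold dilutions, one mid-course medium change, to stably HBV-integrated HepG2.2.15 cells plated at 5,000/well in 2% FBS.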

HBV = HBV inhibitory activity: HBV DNA in the culture medium of HepG2.2.15 cells by q-PCR; assay type: cell-based; conditions: HepG2.2.15 cells, 6 days of compound treatment, HBV DNA in culture medium by q-PCR, highest concentration 10 μM, read-out: EC50
Method in brief: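 Supernatant HBV DNA quantified by q-PCR after a 6-day compound exposure, with one mid-course medium change, of HepG2.2.15 cells (stably integrated HBV; 40,000 per well, 2% FBS). Eight-point 3-fold series topped at 10 μM for antiviral EC50; separate plates of 5,000 cells per well with 100 μM top give CC50.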

[1] = Hepatitis B virus, HepG2.2.15, 144 h

Structure (SMILES) | CC50 (HepG2.2.15 cells) [nM] | EC50 (HBV) [nM] | EC50 (HBV; [1]) [nM]
COC(=O)C1=C(C2CCCC(C(=O)O)CC2)NC(c2nccs2)=NC1c1ccc(F)cc1Cl (single isomer, unassigned) [Compound 95E, 4-(6-(2-Chloro-4-fluorophenyl)-5-(methoxycarbonyl)-2-(thiazol-2-yl)-3,6-dihydropyrimidin-4-yl)cycloheptanecarboxylic Acid] | 75000 | 141 | 
COC(=O)C1=C(C2CCN(S(C)(=O)=O)CC2)NC(c2nccs2)=NC1c1ccc(F)cc1Br (single isomer, unassigned) [Compound 120B, Methyl 4-(2-bromo-4-fluorophenyl)-6-(1-(methylsulfonyl)-piperidin-4-yl)-2-(thiazol-2-yl)-1,4-dihydropyrimidine-5-carboxylate] | 16300 | 154 | 
COC(=O)C1=C([C@H]2CCC[C@@H](CO)C2)NC(c2nccs2)=NC1c1ccc(F)cc1Cl (single isomer, unassigned) [Compound 173C, Methyl 4-(2-chloro-4-fluorophenyl)-6-((cis)-3-(hydroxymethyl)cyclohexyl)-2-(thiazol-2-yl)-1,4-dihydropyrimidine-5-carboxylate] | 9900 | 107 | 
COC(=O)C1=C(C2C[C@@H]3CN(S(C)(=O)=O)C[C@@H]3C2)NC(c2nccs2)=NC1c1ccc(F)cc1Cl (single isomer, unassigned) [Compound 176D, Methyl 4-(2-chloro-4-fluorophenyl)-6-((cis)-2-(methylsulfonyl)-octahydrocyclopenta[c]pyrrol-5-yl)-2-(thiazol-2-yl)-1,4-dihydropyrimidine-5-carboxylate] | 11000 |  | 700
COC(=O)C1=C(C2CCN(S(=O)(=O)C3CCC(C)(C(=O)O)CC3)CC2)NC(c2nccs2)=NC1c1ccc(F)c(F)c1Cl (single isomer, unassigned) [Compound 210A, (trans)-4-((4-(6-(2-chloro-3,4-difluorophenyl)-5-(methoxycarbonyl)-2-(thiazol-2-yl)-3,6-dihydropyrimidin-4-yl)piperidin-1-yl)sulfonyl)-1-methylcyclohexanecarboxylic Acid] | 6000 | 24 | 
COC(=O)C1=C(C2CCN(S(=O)(=O)C3CCC(C)(C(=O)O)CC3)CC2)NC(c2nccs2)=NC1c1ccc(F)c(F)c1Cl (single isomer, unassigned) [Compound 210B, (cis)-4-((4-(6-(2-chloro-3,4-difluorophenyl)-5-(methoxycarbonyl)-2-(thiazol-2-yl)-3,6-dihydropyrimidin-4-yl)piperidin-1-yl)sulfonyl)-1-methylcyclohexanecarboxylic Acid] | 9700 | 44 | 
COC(=O)C1=C(C2CCN(S(=O)(=O)CC(=O)O)C2)NC(c2nccs2)=NC1c1ccc(F)cc1Cl (single isomer, unassigned) [Compound 214C, 2-((−3-(−6-(2-Chloro-4-fluorophenyl)-5-(methoxycarbonyl)-2-(thiazol-2-yl)-3,6-dihydropyrimidin-4-yl)pyrrolidin-1-yl)sulfonyl)acetic Acid] | > 100000 | 784 | 
COC(=O)C1=C(C2COC(CO)C2)NC(c2nccs2)=NC1c1cccc(F)c1Cl (single isomer, unassigned) [Compound 219A, Methyl 4-(2-chloro-3-fluorophenyl)-6-(5-(hydroxymethyl)-tetrahydrofuran-3-yl)-2-(thiazol-2-yl)-1,4-dihydropyrimidine-5-carboxylate] | 35300 | 192 | 
COC(=O)C1=C(C2COC(CO)C2)NC(c2nccs2)=NC1c1cccc(F)c1Cl (single isomer, unassigned) [Compound 219C, Methyl 4-(2-chloro-3-fluorophenyl)-6-(5-(hydroxymethyl)-tetrahydrofuran-3-yl)-2-(thiazol-2-yl)-1,4-dihydropyrimidine-5-carboxylate] | 10300 | 176 | 
COC(=O)C1=C(C2COC(CO)C2)NC(c2nccs2)=NC1c1cccc(F)c1Cl (single isomer, unassigned) [Compound 219E, Methyl 4-(2-chloro-3-fluorophenyl)-6-(5-(hydroxymethyl)-tetrahydrofuran-3-yl)-2-(thiazol-2-yl)-1,4-dihydropyrimidine-5-carboxylate] | 51400 | 134 | 
COC(=O)C1=C(C2COC(CO)C2)NC(c2nccs2)=NC1c1cccc(F)c1Cl (single isomer, unassigned) [Compound 219H, Methyl 4-(2-chloro-3-fluorophenyl)-6-(5-(hydroxymethyl)-tetrahydrofuran-3-yl)-2-(thiazol-2-yl)-1,4-dihydropyrimidine-5-carboxylate] | 1500 | 334 | 
COC(=O)C1=C(C2CCN(S(=O)(=O)[C@H]3C[C@H](C(=O)O)C3)CC2)NC(c2nccs2)=NC1c1ccc(F)c(F)c1Cl (single isomer, unassigned) [Compound 232X, (trans)-3-((4-(6-(2-Chloro-3,4-difluorophenyl)-5-(methoxycarbonyl)-2-(thiazol-2-yl)-3,6-dihydropyrimidin-4-yl)piperidin-1-yl)sulfonyl)cyclobutanecarboxylic Acid] | 70000 | 105 | 
CCCS(=O)(=O)N1CCC(C2=C(C(=O)OC)C(c3ccc(F)cc3Cl)N=C(c3nccs3)N2)C1 (single isomer, unassigned) [Compound 256A, Methyl 4-(2-chloro-4-fluorophenyl)-6-(−1-(propylsulfonyl)pyrrolidin-3-yl)-2-(thiazol-2-yl)-1,4-dihydropyrimidine-5-carboxylate] | > 100000 | 82 | 
CCCS(=O)(=O)N1CCC(C2=C(C(=O)OC)C(c3ccc(F)cc3Cl)N=C(c3nccs3)N2)C1 (single isomer, unassigned) [Compound 256D, Methyl 4-(2-chloro-4-fluorophenyl)-6-(−1-(propylsulfonyl)pyrrolidin-3-yl)-2-(thiazol-2-yl)-1,4-dihydropyrimidine-5-carboxylate] | 22900 | 964 | 
CCOC(=O)C1=C([C@@H]2CC[C@H](C(=O)O)OC2)NC(c2nccs2)=NC1c1ccc(F)cc1Cl (single isomer, unassigned) [Compound 265H, (cis)-5-(−6-(2-Chloro-4-fluorophenyl)-5-(ethoxycarbonyl)-2-(thiazol-2-yl)-3,6-dihydropyrimidin-4-yl)tetrahydro-2H-pyran-2-carboxylic Acid] | > 100000 | 214 | 
CCOC(=O)C1=C(C2CCN(S(=O)(=O)C3CC(C)(C(=O)O)C3)CC2)NC(c2nccs2)=NC1c1ccc(F)cc1Br (single isomer, unassigned) [Compound 282C, (trans)-3-((4-(−6-(2-Bromo-4-fluorophenyl)-5-(ethoxycarbonyl)-2-(thiazol-2-yl)-3,6-dihydropyrimidin-4-yl)piperidin-1-yl)sulfonyl)-1-methylcyclobutanecarboxylic Acid] | 15700 | 15 | 
CCOC(=O)C1=C(C2CCN(S(=O)(=O)C3CC(C)(C(=O)O)C3)CC2)NC(c2nccs2)=NC1c1ccc(F)cc1Br (single isomer, unassigned) [Compound 282D, (cis)-3-((4-(6-(2-Bromo-4-fluorophenyl)-5-(ethoxycarbonyl)-2-(thiazol-2-yl)-3,6-dihydropyrimidin-4-yl)piperidin-1-yl)sulfonyl)-1-methylcyclobutanecarboxylic Acid] | 11200 | 39 | 
COC(=O)C1=C([C@H]2CC[C@H](NS(C)(=N)=O)CC2)NC(c2nccs2)=NC1c1ccc(F)cc1Cl (single isomer, unassigned) [Compound 287B, Methyl 4-(2-chloro-4-fluorophenyl)-6-((trans)-4-(methylsulfonoimidamido)cyclohexyl)-2-(thiazol-2-yl)-1,4-dihydropyrimidine-5-carboxylate] | 23100 |  | 72
COC(=O)C1=C([C@H]2CC[C@H](NS(C)(=N)=O)CC2)NC(c2nccs2)=NC1c1ccc(F)cc1Cl (single isomer, unassigned) [Compound 287D, Methyl 4-(2-chloro-4-fluorophenyl)-6-((trans)-4-(methylsulfonoimidamido)cyclohexyl)-2-(thiazol-2-yl)-1,4-dihydropyrimidine-5-carboxylate] | 60000 | 67 | 
COC(=O)C1=C(C2CCC(NC(C)=O)C2)NC(c2nccs2)=NC1c1ccc(F)c(F)c1Cl (single isomer, unassigned) [Compound 300B, Methyl 6-(−3-acetamidocyclopentyl)-4-(2-chloro-3,4-difluorophenyl)-2-(thiazol-2-yl)-1,4-dihydropyrimidine-5-carboxylate] | 28600 | 13 | 
COC(=O)C1=C(C2CCC(NC(C)=O)C2)NC(c2nccs2)=NC1c1ccc(F)c(F)c1Cl (single isomer, unassigned) [Compound 300D, Methyl 6-(−3-acetamidocyclopentyl)-4-(2-chloro-3,4-difluorophenyl)-2-(thiazol-2-yl)-1,4-dihydropyrimidine-5-carboxylate] | 12600 | 14 | 
COC(=O)C1=C(C2CCC(NC(C)=O)C2)NC(c2nccs2)=NC1c1ccc(F)c(F)c1Cl (single isomer, unassigned) [Compound 300G, Methyl 6-(−3-acetamidocyclopentyl)-4-(2-chloro-3,4-difluorophenyl)-2-(thiazol-2-yl)-1,4-dihydropyrimidine-5-carboxylate] | 23900 | 122 | 
